In PubChem BioAssay (NCI) one finds GI50 and TGI data, which are given here for 24 compounds.

What all share (assay): NCI-60 cell line screen, 48 h
The test system of assay [1] is OVCAR-8 ovarian.
The test system of assay [2] is MDA-MB-231 breast.
The test system of assay [3] is NCI-H460 lung.
Assay [4] concerns RXF 393 renal.
The subject of assay [5] is HT29 colon.
Assay [6] has as its system OVCAR-5 ovarian.
The subject of assay [7] is U251 CNS.
Assay [8] deals with A498 renal.
Assay [9] concerns OVCAR-4 ovarian.
Assay [10] relates to HCC-2998 colon.

SMILES strings stand for the structures.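 1) Cells in 96-well plates. 2) Compound, 48 h, 5 concentrations. 3) Linear interpolation between surrounding doses. 4) Unreached endpoint = highest concentration. At the GI50, growth is halved. TGI denotes the concentration required for complete inhibition of growth.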

For the compound `COc1ccc(O)c(C(=O)c2ccc(C(=O)O[C@@H]3CCCNC[C@H]3NC(=O)c3ccncc3)cc2)c1F`, the GI50 in [1] was 1.04 µM; in assay [2] it was more than 10.3 µM; in assay [3], 0.869 µM; in assay [4], 0.162 µM; in [5] it was 0.944 µM; in assay [6], more than 19.3 µM. For the same compound, the GI50 in assay [7] is 1.17 µM; in [8], 0.189 µM; in assay [9] it was 7.9 µM; in assay [10] it was 2.08 µM. Also, the TGI in assay [1] is more than 25 µM; in assay [2] it was more than 25 µM; in [3], more than 25 µM; in assay [4], 0.839 µM; in [5], more than 25 µM; in [6] it was more than 25 µM. Besides, the TGI in assay [7] was more than 22.7 µM; in [8] it was 1.6 µM; in [9], more than 25 µM; in [10], more than 25 µM.
For `Cc1c(C(=O)/C=C/c2ccc(Cl)cc2)[n+](=O)c2ccccc2n1[O-]`, the TGI in assay [1] is 23.3 µM; in [3], 29.1 µM; in [4], 17.9 µM; in assay [5], 28.2 µM; in [6] it was 28.3 µM; in assay [7], 26.3 µM. For the same compound, the results for the TGI in assay [8], in assay [9] and in assay [10] were 29.2 µM, 28.3 µM and 24.5 µM, respectively.
Take `Cc1ccccc1C(=O)Oc1ccc(Oc2ccccc2)cc1`: the TGI in assay [1], in assay [3], in [4], in [5], in assay [6] and in [7] was more than 100 µM throughout. In addition, the TGI in [8], in assay [9] and in assay [10] was more than 100 µM in each case.
Regarding `Cn1c(CCC#N)nc2ccc(Br)cc2c1=O`, the TGI in [1], in assay [3], in [4], in [5], in assay [6] and in [7] was more than 100 µM in each case. For the same compound, the TGI in [8], in [9] and in assay [10] was more than 100 µM throughout.
For `O=C(O)C1C2CC3C(OC(=O)C31)C2Br` (stereo not drawn), the TGI in assay [1], in [2], in assay [3], in [4], in [5] and in assay [6] was more than 100 µM each time. Moreover, the TGI in assay [7], in [8] and in assay [9] was more than 100 µM throughout.
With `Cc1ccc(C)c(NC(=O)c2cc(-c3ccc([N+](=O)[O-])cc3)nc(N)n2)c1`, the TGI in [1], in [3], in [4], in assay [5], in assay [6] and in assay [7] was more than 100 µM each time. Moreover, the TGI in assay [8], in [9] and in [10] was more than 100 µM in each case.
For `Cc1ccc(NC(=O)/C(CC(=O)c2c[n+](=O)c3ccccc3n2O)=N\NC(=O)C[n+]2ccccc2)cc1`, the TGI in [1], in [3], in assay [4], in assay [5], in [6] and in [7] was more than 100 µM each time. The TGI in assay [8], in assay [9] and in [10] was more than 100 µM throughout.
Consider `O=c1/c(=C/c2ccc(Cl)cc2Cl)sc2nc3ccccc3n12`, for which the TGI in assay [1], in assay [3], in assay [4], in assay [5], in assay [6] and in [7] was more than 100 µM each time. Besides, the TGI in [8], in assay [9] and in [10] was more than 100 µM each time.
Turning to `C=CC1CC12C(=O)C1OC2(C)C2C(=O)c3c(ccc4c3ccc3ccccc34)C(=O)C12` (stereo not drawn), the GI50 was 64.6 µM in assay [1]; 39.1 µM in [2]; 37.1 µM in assay [3]; 25 µM in assay [4]; 91.6 µM in [5]; more than 100 µM in assay [6]. The GI50 is 26.7 µM in assay [7], more than 100 µM in [9] and 94.6 µM in assay [10]. Besides, the TGI in assay [1] was more than 100 µM; in [2] it was more than 100 µM; in [3], more than 100 µM; in assay [4], 83 µM; in [5] it was more than 100 µM; in [6], more than 100 µM. The TGI in assay [7] was 87.6 µM; in assay [9], more than 100 µM; in [10], more than 100 µM.
`C=C1CC(CCCl)(c2ccccc2)OC1=O` (stereo not drawn): the TGI was more than 100 µM in [1]; more than 100 µM in [3]; 47.7 µM in assay [4]; more than 72.1 µM in assay [5]; more than 100 µM in assay [6]; more than 100 µM in [7]. The TGI in assay [8], in [9] and in assay [10] was more than 100 µM each time.
In the case of `CCCCCCCCCCCCCCCC(=O)OCC(O)C1OC(=O)C(O)=C1O` (stereo not drawn), the TGI is 54.2 µM in [2]; more than 100 µM in assay [3]; 86.8 µM in assay [4]; 38.8 µM in [5]; 95.4 µM in [6]; 61.7 µM in [7]. Further, the TGI was 77 µM in [8], more than 100 µM in assay [9] and more than 100 µM in [10].
Regarding `Nc1ccc2c(c1)C(=O)c1c(F)cccc1-2`, the TGI in assay [1], in assay [2], in assay [3], in [4], in assay [5] and in [7] was more than 100 µM each time. Also, the TGI in assay [8] and in assay [10] was more than 100 µM each time.
Take `O=C(COc1cccc(/C=C2\COc3ccccc3C2=O)c1)Nc1nccs1`: the GI50 in assay [1] is 3.4 µM; in assay [2] it was 3.55 µM; in [3], 6.92 µM; in assay [5] it was 1.94 µM; in assay [6], 2.65 µM; in assay [7], 1.73 µM. The GI50 in assay [8] is 15.7 µM; in assay [9], 3.99 µM; in assay [10], 1.95 µM. The TGI was determined as 11.2 µM in [1]; 17 µM in [2]; 31.6 µM in [3]; 3.72 µM in assay [5]; 10.1 µM in [6]; 3.11 µM in [7]. Moreover, the TGI in assay [8] was 29.2 µM; in assay [9], 14.3 µM; in assay [10] it was 3.48 µM.
As to `O=c1c2ccc3cccc4c(=O)cc(c5ccccc15)-c2c34`, the TGI in [1], in [3], in [4], in assay [5], in assay [6] and in [7] was more than 100 µM throughout. Also, the TGI in [8], in assay [9] and in [10] was more than 100 µM throughout.
In the case of `CC(=O)N1CC2Nc3ccccc3C2CC1CO` (stereo not drawn), the TGI in assay [1], in [3], in assay [4], in assay [5], in [6] and in [7] was more than 100 µM throughout. In addition, the TGI in assay [8], in assay [9] and in [10] was more than 100 µM throughout.
For `CC(=O)/C=C/C1=C(c2cc3ccccc3s2)c2ccccc2CC1`, the GI50 in [1] was 39.4 µM; in assay [2], 26.2 µM; in assay [4], 24.9 µM; in assay [5] it was 21 µM; in [6], 27 µM; in assay [7] it was 39.6 µM. Also, the results for the GI50 in assay [8], in assay [9] and in assay [10] were 28.9 µM, 25.9 µM and 22.7 µM, respectively. The TGI is more than 100 µM in [1]; 88.2 µM in [2]; 57.2 µM in assay [4]; more than 100 µM in [5]; 67.9 µM in assay [6]; more than 100 µM in assay [7]. The TGI in assay [8] is 58.1 µM; in assay [9], more than 100 µM; in assay [10], 50.2 µM.
With `COc1ccc(C(c2ccc(C(C)C)cc(=O)c2O)c2c(O)cc3oc(-c4ccccc4)cc(=O)c3c2O)cc1` (stereo not drawn), the TGI in assay [1] was more than 100 µM; in assay [3], 15.8 µM; in assay [4] it was 34.2 µM; in assay [5], 62.9 µM; in assay [7], 22.3 µM; in assay [8], 51.5 µM. Also, the TGI in [9] turned out to be 23 µM; in assay [10], 33.6 µM.
In the case of `C(=C\c1csnn1)/c1cccnc1`, the TGI in assay [1], in assay [3], in assay [4], in assay [5], in assay [6] and in assay [7] was more than 100 µM throughout. Also, the TGI in assay [8], in assay [9] and in assay [10] was more than 100 µM in each case.
Regarding `CC(=O)OC12c3ccccc3C1CCCCCC21OCCCO1` (stereo not drawn), the TGI in assay [1], in [3], in assay [4], in [5], in [6] and in assay [7] was more than 100 µM in each case. For the same compound, the TGI in assay [8], in assay [9] and in assay [10] was more than 100 µM throughout.
With `O=C1/C(=C/c2ccccc2Cl)N=C(c2ccccc2)N1Cc1ccco1`, the GI50 was more than 100 µM in [1]; 19.7 µM in assay [2]; 42.6 µM in [3]; 16.4 µM in assay [4]; 36.4 µM in assay [5]; more than 100 µM in [6]. Besides, the values for the GI50 in [7], in [8] and in [10] were 57.8 µM, 24.3 µM and 43.2 µM, respectively. Moreover, the TGI was more than 100 µM in assay [1]; more than 100 µM in assay [2]; more than 100 µM in [3]; 93 µM in [4]; more than 100 µM in assay [5]; more than 100 µM in [6]. The figures for the TGI in assay [7], in [8] and in [10] were more than 100 µM, 76.6 µM and more than 100 µM, respectively.
On to `COc1cnc2c(c1)C(=O)c1c-2n(CCCn2ccnc2)c(=O)c2cc(Cl)ccc12`, for which the GI50 is 0.0389 µM in assay [1]; 1.27 µM in assay [2]; less than 0.01 µM in [3]; 0.0407 µM in assay [4]; 0.309 µM in assay [6]; 0.0144 µM in assay [7]. Besides, the figures for the GI50 in assay [8], in assay [9] and in assay [10] were 0.113 µM, 0.362 µM and 0.382 µM, respectively. Besides, the TGI was 14.3 µM in assay [1]; more than 100 µM in assay [2]; 0.271 µM in assay [3]; 0.235 µM in assay [4]; 35 µM in assay [6]; 0.119 µM in [7]. In addition, the TGI was 0.557 µM in assay [8], more than 100 µM in [9] and more than 100 µM in assay [10].
For the compound `CCC[CH2][Sn]([CH2]CCC)([O]C(=O)c1cccc(F)c1)[O]C(=O)c1cccc(F)c1`, the GI50 was 1.22 µM in assay [1]; 2.08 µM in [3]; 0.185 µM in assay [4]; 1.73 µM in [5]; 2.67 µM in assay [6]; 1.05 µM in [7]. In addition, the figures for the GI50 in assay [8], in [9] and in assay [10] were 0.467 µM, 2.05 µM and 1.47 µM, respectively. The TGI in [1] came to 2.6 µM; in assay [3], 5.38 µM; in assay [4] it was 0.758 µM; in assay [5], 3.38 µM; in assay [6], 4.24 µM; in [7], 2.26 µM. Also, the TGI in assay [8] came out at 1.98 µM; in [9], 3.83 µM; in assay [10] it was 2.81 µM.
Consider `O=c1ccccc2cccc(O)c12`, for which the TGI in assay [1], in assay [3], in [4], in assay [5], in assay [7] and in assay [8] was more than 100 µM throughout. Besides, the TGI in assay [9] and in [10] was more than 100 µM each time.
Turning to `CCOC(=O)/N=C(\N)SCc1ccccc1`, the TGI in [1], in [3], in [4], in assay [5], in assay [6] and in assay [7] was more than 100 µM each time. In addition, the TGI in assay [8], in [9] and in assay [10] was more than 100 µM in each case.
